# Measured values published in ChEMBL document CHEMBL1201862, “PubChem BioAssay data set” (2004).
# Active and inactive are the calls of the source.
# Legend:
# [1] = off-target signal loss in HeLa-CEM21 co-culture – HeLa F-luc CTL cells, cherry-picked, counter-screen for HIV-1 Env fusion inhibitor project, dose response (AID 652040); format: functional, cell-based;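 also: potency for signal decrease marking cytotoxic or nonspecific inhibition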
# [2] = inhibitors of clade B AD8 Env fusion, dose response, cell-based, cherry-pick (AID 652062); format: functional;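 also: luciferase signal from cell-cell fusion driven by HIV-1 clade B AD8 Env; potency is for inhibitors of fusion seen as a drop in luminescence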
# [3] = ZM109 Env clade C HIV-1 fusion inhibitors, dose response, HeLa effector, CEM target cells, luciferase, cherry-pick (AID 652058); format: functional, cell-based
# [4] = inhibitors of HIV Env-driven cell fusion, dose response, cherry-pick (AID 652057); format: functional, cell-based
# [5] = P. falciparum Dd2 growth inhibitors, dose response, SYBR Green, dry powder samples (AID 1159566); format: functional, cell-based;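 also: potency for growth inhibition with lower SYBR green DNA signal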
# [6] = P. falciparum 3D7-ScDHODH growth inhibitors, dose response, SYBR Green, dry powder samples (AID 1159570); format: functional, cell-based;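 also: parasite growth measured after 72 hours of compound exposure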
# [7] = P. falciparum Dd2 growth inhibitors, dose response, SYBR Green, cherry-picked samples (AID 1159567); format: functional, cell-based
# [8] = P. falciparum ATP4 D1247Y mutant growth inhibitors, dose response, NITD609-resistant line, SYBR Green, dry powder (AID 1159571); format: functional, cell-based;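 also: parasites synchronized at ring stage by sorbitol before testing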
# [9] = HepG2 cell cytotoxicity, dose response, cytotoxicity control, cherry-picked samples (AID 1159577); format: functional, cell-based
# [10] = HepG2 cell cytotoxicity, dose response, cytotoxicity control, plate reader, dry powder samples (AID 1159569); format: functional, cell-based;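 also: inhibitor potency with signal falling toward the positive control level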
# [11] = target: T1, Long-chain-fatty-acid--AMP ligase FadD28 (Mycobacterium tuberculosis, UniProt P9WQ59); assay: Fluorescence polarization aasay to screen for inhibitors that compete for the binding of FadD28 to a bisubstrate Measured in Biochemical System Using Plate Reader - 2147-01_Inhibitor_Dose_CherryPick_Activity.; format: functional, Mycobacterium tuberculosis H37Rv
# T1 sequence (P9WQ59 whole entry): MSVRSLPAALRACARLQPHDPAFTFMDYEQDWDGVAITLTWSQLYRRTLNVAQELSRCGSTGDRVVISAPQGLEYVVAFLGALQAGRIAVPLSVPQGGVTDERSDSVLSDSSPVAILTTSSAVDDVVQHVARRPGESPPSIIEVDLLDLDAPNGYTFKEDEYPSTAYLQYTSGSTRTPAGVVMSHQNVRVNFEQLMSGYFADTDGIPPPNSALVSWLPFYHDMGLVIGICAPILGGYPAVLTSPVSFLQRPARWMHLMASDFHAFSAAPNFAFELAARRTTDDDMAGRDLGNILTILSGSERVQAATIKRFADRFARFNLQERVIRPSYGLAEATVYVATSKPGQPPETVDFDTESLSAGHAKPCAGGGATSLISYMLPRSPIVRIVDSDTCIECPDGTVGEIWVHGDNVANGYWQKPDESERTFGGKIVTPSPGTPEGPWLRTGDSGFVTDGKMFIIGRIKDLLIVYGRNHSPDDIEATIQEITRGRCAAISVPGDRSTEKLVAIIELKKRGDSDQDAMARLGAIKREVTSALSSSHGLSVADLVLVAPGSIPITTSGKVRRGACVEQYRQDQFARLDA
# [12] = cytotoxicity toward NIH3T3 fibroblasts, dose response, counter-screen, cell-based, ATP luminescence, mouse fibroblasts (AID 2010); format: functional;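 also: cells exposed to compound for about 90 hours before reading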
# [13] = inhibitors of intracellular T. cruzi replication, confirmation, NIH3T3 host cells, beta-gal luminescence (AID 2044); format: functional, cell-based;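 also: intracellular parasites grown in NIH/3T3 mouse fibroblasts as host cells; luminescent beta-galactosidase reporter signal from transgenic T. cruzi replicating inside host cells; inhibitors lower the luminescence signal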
# [14] = HEp-2 cell cytotoxicity, dose response, cytotoxicity control for RSV inhibitor project, HTS (AID 2410); format: functional; conditions: human respiratory syncytial virus
# Protein skinhead-1 = target: T2, Protein skinhead-1 (Caenorhabditis elegans, UniProt P34707); format: functional
# T2 sequence (P34707 whole entry): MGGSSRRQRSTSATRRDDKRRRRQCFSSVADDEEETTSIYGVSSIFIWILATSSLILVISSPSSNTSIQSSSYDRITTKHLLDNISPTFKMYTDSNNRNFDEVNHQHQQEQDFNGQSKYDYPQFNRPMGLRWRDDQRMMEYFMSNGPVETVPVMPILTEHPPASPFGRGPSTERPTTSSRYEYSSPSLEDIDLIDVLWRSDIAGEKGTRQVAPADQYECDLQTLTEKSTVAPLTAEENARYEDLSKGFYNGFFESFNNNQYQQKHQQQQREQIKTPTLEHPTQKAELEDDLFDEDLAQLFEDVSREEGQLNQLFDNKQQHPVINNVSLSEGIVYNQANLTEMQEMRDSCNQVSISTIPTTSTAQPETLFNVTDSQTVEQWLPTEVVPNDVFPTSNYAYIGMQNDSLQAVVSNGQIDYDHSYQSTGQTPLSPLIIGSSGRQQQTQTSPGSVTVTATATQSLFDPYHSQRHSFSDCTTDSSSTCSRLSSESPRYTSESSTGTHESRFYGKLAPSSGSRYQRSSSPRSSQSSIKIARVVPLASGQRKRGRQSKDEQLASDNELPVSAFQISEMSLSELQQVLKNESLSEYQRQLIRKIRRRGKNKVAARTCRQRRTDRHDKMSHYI
# cells [15] = format: functional, cell-based
# cells [16] = format: functional, cell-based; remark: listed apart in the source
# BJ [17] = assay: cells; format: functional, cell-based; conditions: Homo sapiens
# BJ [18] = assay: cytotoxicity toward BJ-TERT-LT-ST fibroblasts, dose response, cell-based, RAS-independent, luminescence (AID 1935); format: functional; conditions: Homo sapiens;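 also: BJ fibroblasts immortalized with TERT plus LT and ST oncogenes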
# BJ [19] = assay: cytotoxicity toward BJ-TERT fibroblasts, dose response, cell-based, RAS-independent, luminescence (AID 1933); format: functional; conditions: Homo sapiens
# [20] = cytotoxicity toward DRD oncogenic fibroblasts, dose response, cell-based, non-viral oncogenic, luminescence (AID 1934); format: functional; conditions: Homo sapiens
# [21] = target: T3, Histone-lysine N-methyltransferase NSD2 (Homo sapiens, UniProt O96028); format: biochemical
# T3 sequence (O96028 whole entry): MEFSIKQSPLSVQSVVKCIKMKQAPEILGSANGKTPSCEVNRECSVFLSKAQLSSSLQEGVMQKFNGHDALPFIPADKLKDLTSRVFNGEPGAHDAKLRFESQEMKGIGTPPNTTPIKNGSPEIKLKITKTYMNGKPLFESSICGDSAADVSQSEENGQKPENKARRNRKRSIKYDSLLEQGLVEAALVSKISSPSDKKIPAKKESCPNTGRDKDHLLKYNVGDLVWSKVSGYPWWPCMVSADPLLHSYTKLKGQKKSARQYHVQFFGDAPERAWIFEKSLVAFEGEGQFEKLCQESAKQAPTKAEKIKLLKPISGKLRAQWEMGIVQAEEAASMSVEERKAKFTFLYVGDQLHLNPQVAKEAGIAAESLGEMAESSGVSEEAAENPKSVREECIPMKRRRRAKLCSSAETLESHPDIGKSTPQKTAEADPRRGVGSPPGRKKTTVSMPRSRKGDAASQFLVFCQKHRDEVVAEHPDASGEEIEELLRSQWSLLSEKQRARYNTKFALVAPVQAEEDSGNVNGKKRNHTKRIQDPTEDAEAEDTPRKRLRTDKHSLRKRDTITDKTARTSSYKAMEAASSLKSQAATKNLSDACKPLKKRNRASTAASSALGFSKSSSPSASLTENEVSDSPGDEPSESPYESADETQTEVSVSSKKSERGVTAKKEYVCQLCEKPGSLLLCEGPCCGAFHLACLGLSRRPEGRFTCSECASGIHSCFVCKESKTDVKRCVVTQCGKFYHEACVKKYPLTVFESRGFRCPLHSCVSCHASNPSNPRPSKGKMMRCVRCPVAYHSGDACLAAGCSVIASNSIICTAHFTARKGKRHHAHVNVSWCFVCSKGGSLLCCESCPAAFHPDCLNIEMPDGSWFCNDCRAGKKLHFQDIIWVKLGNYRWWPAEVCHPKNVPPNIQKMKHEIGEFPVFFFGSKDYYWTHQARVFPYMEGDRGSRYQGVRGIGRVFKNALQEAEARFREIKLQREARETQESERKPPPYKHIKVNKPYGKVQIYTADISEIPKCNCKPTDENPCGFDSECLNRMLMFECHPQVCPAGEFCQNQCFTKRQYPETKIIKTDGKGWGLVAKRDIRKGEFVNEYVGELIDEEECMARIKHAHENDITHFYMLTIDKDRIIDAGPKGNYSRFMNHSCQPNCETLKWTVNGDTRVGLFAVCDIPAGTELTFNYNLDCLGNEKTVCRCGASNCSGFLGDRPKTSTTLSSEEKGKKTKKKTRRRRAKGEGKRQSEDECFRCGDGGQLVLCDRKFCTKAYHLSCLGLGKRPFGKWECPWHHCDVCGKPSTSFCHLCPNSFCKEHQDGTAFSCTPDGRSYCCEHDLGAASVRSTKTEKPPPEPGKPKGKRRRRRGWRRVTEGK
compound,measurement,setting,value
COc1ccc2c(c1)[C@H]1[C@H](CO2)[C@H](c2ccccc2)[C@]2(C)C(=O)Nc3cc(OC)c(OC)cc3C(=O)N12,AC50,[1],25.6 µM (active)
same,AC50,[2],27.3 µM (active)
same,AC50,[3],18.9 µM (active)
same,AC50,[4],16.1 µM (active)
COc1ccc(CN2CC3(C2)CN(C(=O)CN(C)C)[C@H](CO)c2[nH]c4cc(OC)ccc4c23)cc1,AC50,[5],1.64 µM (active)
same,AC50,[6],1.6 µM (active)
same,AC50,[7],2.87 µM (active)
same,AC50,[8],2.51 µM (active)
same,AC50,[9],35.4 µM (active)
same,AC50,[10],13.6 µM (active)
COc1cc(/C=N/NC(N)=S)ccc1OCc1ccc(C)cc1,AC50,[11],69.9 µM (active)
same,EC50,[12],8.5 µM (active)
same,EC50,[13],0.566 µM (active)
COc1cc(-c2nc3oc4ccccc4c(=O)c3c(=O)n2Cc2ccco2)cc(OC)c1OC,AC50,[1],5.7 µM (active)
same,AC50,[2],4.1 µM (active)
same,CC50,[14],> 50 µM (active)
same,AC50,[3],0.584 µM (active)
same,AC50,[4],2.38 µM (active)
CCn1c(CSc2nnc(-c3ccncc3)n2C)nc2cc(C(=O)O)ccc21,IC50,Protein skinhead-1,> 100 µM (inactive)
same,AC50,[11],> 100 µM (inactive)
O=C(Cn1nnc(-c2ccc3c(c2)OCO3)n1)Nc1ccccc1C(=O)O,AC50,[11],32 µM (inactive)
C[C@@H]1CN([C@@H](C)CO)C(=O)c2c(c3ccccc3n2C)-c2ccccc2CO[C@@H]1CN(C)Cc1ccc(Cl)c(Cl)c1,AC50,[5],1.11 µM (active)
same,AC50,[6],2.24 µM (active)
same,AC50,[7],1.34 µM (active)
same,AC50,[8],1.73 µM (active)
same,AC50,[9],22.3 µM (active)
same,AC50,[10],22.3 µM (active)
O=C(CSc1n[nH]c(-c2ccccc2)n1)NC(=O)NCc1ccco1,EC50,cells [15],> 29.9 µM (inactive)
same,IC50,cells [16],> 29.9 µM (inactive)
COc1ccc2c3c(n(C)c2c1)[C@H](CO)NCC31CCN(S(=O)(=O)c2cccc(F)c2)CC1,AC50,[7],4.66 µM (active)
same,AC50,[9],> 39 µM (inactive)
COc1ccccc1C#Cc1ccc2c(c1)[C@@H]1NCC[C@@H]1[C@H](CO)N2,AC50,[5],1.94 µM (active)
same,AC50,[6],3.15 µM (active)
same,AC50,[7],2.56 µM (active)
same,AC50,[8],4.53 µM (active)
same,AC50,[9],> 39 µM (inactive)
same,AC50,[10],37.3 µM (active)
O=C(C1CCCC1)N1CC(=O)N2[C@@H](CO)[C@H](c3ccc(C#CCc4ccccc4)cc3)[C@@H]2C1,AC50,[7],2.47 µM (active)
same,AC50,[9],8.92 µM (active)
CCOc1ccccc1N(C(=O)CNC(=O)c1ccco1)C(C(=O)NC1CCCC1)c1cccnc1 (stereo not given),AC50,[1],9.65 µM (active)
same,AC50,[2],3.91 µM (active)
same,AC50,[3],6.15 µM (active)
same,AC50,[4],7.37 µM (active)
Cc1nc(N2CCCCC2)sc1C(=O)c1ccc(Cl)c([N+](=O)[O-])c1,EC50,BJ [17],> 150 µM (not active)
same,EC50,BJ [18],> 75 µM (inconclusive)
same,EC50,BJ [19],9.77 µM (active)
same,EC50,[20],15.6 µM (active)
CCOc1ccc(NS(=O)(=O)c2ccc(C(=O)N(C)CCc3ccc(OC)c(OC)c3)cc2)cc1,AC50,[1],4.78 µM (active)
same,AC50,[2],5.92 µM (active)
same,AC50,[3],2.58 µM (active)
same,AC50,[4],3.4 µM (active)
CCN(CC)CCNC(=O)c1cc2cc(Br)ccc2s1,AC50,[21],> 20 µM (inactive)
COc1ccccc1C#Cc1ccc([C@@H]2[C@@H](CO)N(C(=O)C3CCCCC3)[C@H]2C#N)cc1,AC50,[5],0.872 µM (active)
same,AC50,[6],1.35 µM (active)
same,AC50,[7],2.73 µM (active)
same,AC50,[8],1.06 µM (active)
same,AC50,[9],> 39 µM (inactive)
same,AC50,[10],16.4 µM (active)
O=C(Nc1ccc(Cl)cc1)N[C@@H]1c2c(ccc3ccccc23)OC[C@@H]1CO,AC50,[11],85.5 µM (active)
C[C@H](CO)N1C[C@H](C)[C@@H](CN(C)S(=O)(=O)c2cccs2)Oc2ccc(NC(=O)Nc3ccc(C(F)(F)F)cc3)cc2C1=O,AC50,[11],> 100 µM (inactive)
